Source: patent US8940333B2, “Amphiphilic block copolymers and nanoparticles comprising the same” (priority 2005, dated 2015)

Experiments:
erythrocyte = experiment: Hemolysis test (ASTM F756); assay type: cell-based
[1] = test system: macrophage culture (RAW 264.7); experiment: In vitro stealth test: reactive oxygen species (DCFDA to DCF) in macrophage culture, flow cytometer; assay type: cell-based; conditions: RAW 264.7, 1 μm PMA, 24-hour activation (positive control)

SMILES	Hemolytic grade (erythrocyte)	Hemolytic index (%) (erythrocyte)	mean fluorescent intensity of DCF [1]
CC[C@@]1(O)C(=O)OCc2c1cc1n(c2=O)Cc2cc3ccccc3nc2-1 [Camptothecin]	slight hemolysis	5.84%	–
CCCCCCCCCCCCCC(=O)O[C@@H]1[C@@H](C)[C@@]2(O)[C@@H](C=C(CO)C[C@]3(O)C(=O)C(C)=C[C@@H]23)[C@@H]2C(C)(C)[C@]12OC(C)=O [PMA]	–	–	20.13
